Data reported in ChEMBL document CHEMBL1136115, “Constrained phytoestrogens and analogues as ERbeta selective ligands” (Bioorg Med Chem Lett, 2003).

Key:
[1] = biological target: T1, Estrogen receptor (Homo sapiens, UniProt P03372)
T1 sequence (P03372 whole entry): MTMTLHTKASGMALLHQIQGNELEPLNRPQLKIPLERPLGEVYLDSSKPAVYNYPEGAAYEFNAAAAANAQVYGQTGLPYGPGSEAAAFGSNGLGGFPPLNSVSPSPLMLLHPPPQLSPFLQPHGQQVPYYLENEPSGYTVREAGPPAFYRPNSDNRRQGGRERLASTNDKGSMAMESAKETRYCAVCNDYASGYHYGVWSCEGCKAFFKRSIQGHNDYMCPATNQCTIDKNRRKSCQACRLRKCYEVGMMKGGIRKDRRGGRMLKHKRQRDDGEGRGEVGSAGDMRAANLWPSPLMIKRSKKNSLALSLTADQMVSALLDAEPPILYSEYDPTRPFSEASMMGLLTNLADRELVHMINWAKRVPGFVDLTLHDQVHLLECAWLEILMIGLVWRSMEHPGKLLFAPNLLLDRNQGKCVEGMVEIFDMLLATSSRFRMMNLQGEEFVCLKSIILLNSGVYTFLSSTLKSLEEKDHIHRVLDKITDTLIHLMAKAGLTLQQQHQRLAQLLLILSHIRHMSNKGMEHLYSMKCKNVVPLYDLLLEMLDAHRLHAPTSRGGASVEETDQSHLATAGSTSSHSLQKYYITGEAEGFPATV
Description: Binding affinity towards human estrogen receptor alpha(ERalpha)

[2] = biological target: T2, Estrogen receptor beta (Homo sapiens, UniProt Q92731)
Description: Binding affinity towards human estrogen receptor beta (ERbeta)

[3] = biological target: T2, Estrogen receptor beta; experiment: Effective dose in metallothionein-II using metallothionein assay
[4] = biological target: T3, Estrogen receptor (Homo sapiens) (UniProt P03372); experiment: Efficacy in ER alpha-MCF-7 cells; format: functional, cell-based
T3 sequence (whole entry): T1 sequence (P03372 whole entry)

[5] = biological target: T3, Estrogen receptor (Homo sapiens); experiment: Effective dose in ERalpha-MCF-7 cells; format: functional, cell-based

T2 sequence (Q92731 whole entry): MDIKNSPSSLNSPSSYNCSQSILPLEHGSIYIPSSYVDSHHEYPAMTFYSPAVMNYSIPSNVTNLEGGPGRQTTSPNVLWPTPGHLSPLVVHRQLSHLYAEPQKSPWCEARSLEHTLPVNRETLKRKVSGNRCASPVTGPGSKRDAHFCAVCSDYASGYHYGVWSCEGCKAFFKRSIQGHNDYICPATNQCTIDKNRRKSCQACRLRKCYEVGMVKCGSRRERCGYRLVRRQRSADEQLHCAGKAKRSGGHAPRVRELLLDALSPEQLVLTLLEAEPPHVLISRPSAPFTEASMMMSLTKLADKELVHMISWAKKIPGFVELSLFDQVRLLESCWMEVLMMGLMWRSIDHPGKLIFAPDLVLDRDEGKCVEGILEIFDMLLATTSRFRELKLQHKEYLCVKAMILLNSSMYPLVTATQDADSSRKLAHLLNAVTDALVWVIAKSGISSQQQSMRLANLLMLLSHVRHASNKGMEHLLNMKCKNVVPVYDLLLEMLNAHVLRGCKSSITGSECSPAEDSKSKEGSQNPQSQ

N#Cc1cc(O)cc2c1oc1c(=O)c3c(O)cc(O)cc3oc12
IC50 [1]: 1550 nM | IC50 [2]: 1340 nM

O=c1c2ccc(O)cc2oc2c1oc1c(Br)cc(O)cc12
IC50 [1]: > 5000 nM | IC50 [2]: 1740 nM

O=c1c2ccc(O)cc2oc2c1oc1ccccc12
IC50 [1]: > 5000 nM

N#Cc1cc(O)cc2c1oc1c(=O)c3ccc(O)cc3oc12
IC50 [1]: > 5000 nM | IC50 [2]: > 5000 nM

O=c1c2oc3c(Br)cc(O)cc3c2oc2cc(O)cc(O)c12
IC50 [1]: 1260 nM | IC50 [2]: 343 nM

O=c1c2ccccc2oc2c1oc1cc(O)ccc12
IC50 [1]: > 5000 nM

O=c1c2cc(O)ccc2oc2c1oc1ccc(O)cc12
IC50 [1]: 180 nM

O=c1c2oc3ccc(O)cc3c2oc2cc(O)cc(O)c12
ED50 [3]: 18 nM | Efficacy [4]: 58% | ED50 [5]: > 500 nM | IC50 [2]: 42 nM

O=c1c2c(O)cc(O)cc2oc2oc3cc(O)ccc3c12
IC50 [2]: 1.7 nM
